Test results: patent US20110098177A1, “METHODS AND COMPOSITIONS OF PLANT MICRONUTRIENTS” (NOVUS INTERNATIONAL INC., priority 2006, published 2011)
Entries after “also recorded” stand apart in the source; their conditions may differ.

Key:
Assay type in all cases: in vivo
[1] = system: Tygress tomato plants; assay: Nutrient concentration of tomato fruits at 10 WAT, open field (Examples 7-10); details: 10 WAT, open field
Method: (§1) The following experiments were performed in open-field plots during the spring of 2008 at GCREC, Balm, University of Florida. Four products delivering Zn (BIOX-Z), Mn (BIOX-M), Cu (BIOX-Cu), and Fe (BIOX-Fe) were compared to other micronutrient supplement formulations in tomato and bell pepper plants.
(§2) The plot sizes for the tomato plants were 30-ft plots (15 plants per plot) and 15-ft plots were used for the bell pepper plants (30 plants per plot). Crop set-up, procedures and variables were as follows.
(§3) Transplants of ‘Tygress’ tomato plants and ‘Patriot’ bell pepper plants in the 4-true leaf stage (about 6 inches tall) were planted in raised beds in open-field plots. The cross-section of each raised bed was 28 inches wide at the top, 32 inches wide at the base, and 8 inches tall. Irrigation and non-micronutrient fertilizer were provided daily through two drip lines per bed (0.45 gal/100 ft bed/min) at recommended rates for tomato and bell pepper production in Florida. […] The height of the plants for each of the treatment groups was measured at 3 weeks after transplantation (WAT), just prior to treatment with the experimental foliar fertilizers.
(§4) All foliar fertilizers except BIOX-CM were applied to the various treatment groups at 3 weeks after transplantation (WAT) and again at 5 WAT. The BIOX-CM treatment was applied at 4 and 5 WAT. The working water volume was 60 gal/acre and a non-ionic surfactant (Ad-Spray 80) was added in the amount of 2 pints/100 gal water. All plots were sprayed with sprayers pressurized at 25 psi and the canopies of both crops were covered with the micronutrient solutions. Treated plots were isolated during foliar fertilizer application to avoid the cross-contamination of other treatments on adjoining plots.
(§5) Leaf samples were collected from the most recent mature leaves from each plant at 6 WAT (2 weeks after initial treatment). Foliar tissue analysis was performed by a commercial laboratory to determine the concentration of N, P, K, Mg, Ca, B, Zn, Mn, Fe, and Cu. Tomato marketable fruit weights were collected at 10 and 12 WAT, and the fruits were graded according to USDA standards. Pepper marketable fruit weights were determined beginning at 5 WAT over 5 weekly harvests. Fruit mineral analysis (N, P, K, Mg, Ca, B, Zn, Mn, Fe, and Cu) was performed on samples from the tomato harvest.
(§6) The experimental design was a randomized complete block design with 5 replications for each treatment. All comparison data were analyzed using a general linear model and the means of each treatment were separated with a Fisher's protected LSD test at the 5% significance level.

[2] = system: Patriot bell pepper plants; assay: Marketable yield, open-field bell pepper (Examples 7-10); details: open field; lb/acre/season: BIOX-Z 1.3, Cu 6.7, M 23.0, Fe 3.2, INC 4.0, INZ 0.6, CM 10.0, GZ 1.0, GF 4.0, EDZ 1.4, EDM 23.0
Method: as §1, §2, §3, §4, §5, §6

[3] = system: Tygress tomato plants; assay: Foliar nutrient concentration at 6 WAT, open-field tomato (Examples 7-10); details: 6 WAT, open field
Method: as §1, §2, §3, §4, §5, §6

[4] = system: Tygress tomato plants; assay: Foliar nutrient concentration 2 weeks after treatment, greenhouse tomato (Examples 4-6); details: Mn 2.0 lb/acre
Method: (§7) The following experiments were performed in a green house during the fall of 2008 and spring of 2009 at GCREC, Balm, University of Florida. Crop set-up, procedures and variables were as follows.
(§8) Transplants of Tygress' tomato plants were planted in 2-gallon pots filled with commercial planting medium with nutrient concentration of Fe, Zn, Mn, Cu being negligible and insufficient for crop growth. Irrigation and non-micronutrient fertilizer were provided daily through microsprinklers at recommended rates for tomato production in Florida. No pesticides were used. Treatments were as described in Tables 4, 5 and 6 below.
(§9) Treatments were applied at 5 WAT (weeks after transplanting) using a water volume of 200 mL/plant. A non-ionic surfactant was added. Foliar tissue analysis was performed at 3 and 7 WAT on the non-applied newest leaves. The concentrations of N, P, K, Mg, Ca, B, Zn, Mn, Fe, and Cu in the foliar tissue were determined from foliar analysis by a commercial laboratory at 2 weeks before treatment and again at 2 weeks after treatment.
(§10) Deionized water was used for foliar applications, and other nutrients were applied as appropriate under non-limiting conditions. Marketable fruit were collected three times during the growing season, starting at 10 WAT (5 weeks after the initial treatment). Tomato fruit was graded as extra-large, large and medium. Non-marketable fruit were harvested and number and weight recorded but not sized.
(§11) Experimental design was a randomized complete block design with 6 replications. Data were analyzed using a general linear model, and means were separated using an LSD test at the 5% significance level.

[5] = system: Patriot bell pepper plants; assay: Foliar nutrient concentration at 6 WAT, open-field bell pepper (Examples 7-10); details: 6 WAT; open field; product rate as Table 17
Method: as §1, §2, §3, §4, §5, §6

[6] = system: Tygress tomato plants; assay: Marketable yield, open-field tomato (Examples 7-10); details: open field; lb/acre/season: BIOX-Z 1.3, Cu 6.7, M 23.0, Fe 3.2, INC 4.0, INZ 0.6, CM 10.0, GZ 1.0, GF 4.0, EDZ 1.4, EDM 23.0
Method: as §1, §2, §3, §4, §5, §6

[7] = system: Tygress tomato plants; assay: Yields of tomato fruits, greenhouse (Examples 4-6)
Method: as §7, §8, §9, §10, §11

Substance: EDTA chelated manganese [BIOX-EDM]
- Nutrient concentrations in tomato fruits, statement [1]: significant increases in micronutrient concentrations of Zn, Mn, Fe, and Cu; also recorded: highest Mn concentration in the resulting tomato fruit
- B concentration of tomato fruits ([1]; product rate as Table 17): 24 ppm
- Ca concentration of tomato fruits ([1]; product rate as Table 17): 0.2%
- Cu concentration of tomato fruits ([1]; product rate as Table 17): 27 a ppm
- Fe concentration of tomato fruits ([1]; product rate as Table 17): 110 a ppm
- K concentration of tomato fruits ([1]; product rate as Table 17): 8.6%
- Mg concentration of tomato fruits ([1]; product rate as Table 17): 0.39%
- Mn concentration of tomato fruits ([1]; product rate as Table 17): 60 a ppm
- N concentration of tomato fruits ([1]; product rate as Table 17): 4.3%
- P concentration of tomato fruits ([1]; product rate as Table 17): 0.63%
- Zn concentration of tomato fruits ([1]; product rate as Table 17): 939 a ppm
- Marketable yield, Bell Pepper [2]: 7.6 ton/acre
- Foliar Zn concentration of tomato plants, statement [3]: significant increase
- Foliar concentration of K of tomato plants compared to control, statement [3]: significant increase
- Foliar concentration of Mn of tomato plants, statement [3]: significant increase
- Foliar concentration of P of tomato plants compared to control, statement [3]: significant decrease
- Foliar B concentration of tomato plants ([3]; product rate as Table 17): 60 ppm
- Foliar Ca concentration of tomato plants ([3]; product rate as Table 17): 2.2%
- Foliar Cu concentration of tomato plants ([3]; product rate as Table 17): 409 ppm
- Foliar Fe concentration of tomato plants ([3]; product rate as Table 17): 100 ppm
- Foliar K concentration of tomato plants ([3]; product rate as Table 17): 6.2 a %
- Foliar Mg concentration of tomato plants ([3]; product rate as Table 17): 0.82%
- Foliar Mn concentration of tomato plants ([3]; product rate as Table 17): 348 b ppm
- Foliar N concentration of tomato plants ([3]; product rate as Table 17): 4.9%
- Foliar P concentration of tomato plants ([3]; product rate as Table 17): 0.22 ab %
- Foliar Zn concentration of tomato plants ([3]; product rate as Table 17): 333 a ppm
- B concentration in tomato leaves ([4]; 2 weeks after Mn treatment): 22 ppm
- Ca concentration in tomato leaves ([4]; 2 weeks after Mn treatment): 0.6%
- Cu concentration in tomato leaves ([4]; 2 weeks after Mn treatment): 5 ppm
- Fe concentration in tomato leaves ([4]; 2 weeks after Mn treatment): 115 ppm
- K concentration in tomato leaves ([4]; 2 weeks after Mn treatment): 3.3%
- Mg concentration in tomato leaves ([4]; 2 weeks after Mn treatment): 0.3%
- N concentration in tomato leaves ([4]; 2 weeks after Mn treatment): 3.3%
- P concentration in tomato leaves ([4]; 2 weeks after Mn treatment): 0.5%
- Zn concentration in tomato leaves ([4]; 2 weeks after Mn treatment): 32 ppm
- Foliar Mn concentration ([4]; tomato leaves 2 weeks after Mn treatment): 78.5 a ppm
- Foliar B concentration of bell pepper plants [5]: 64 ppm
- Foliar Ca concentration of bell pepper plants [5]: 4.4%
- Foliar Cu concentration of bell pepper plants [5]: 411 ppm
- Foliar Fe concentration of bell pepper plants [5]: 138 ppm
- Foliar K concentration of bell pepper plants [5]: 3.6%
- Foliar Mg concentration of bell pepper plants [5]: 0.52%
- Foliar Mn concentration of bell pepper plants [5]: 563 ppm
- Foliar N concentration of bell pepper plants [5]: 4.4%
- Foliar P concentration of bell pepper plants [5]: 0.28%
- Foliar Zn concentration of bell pepper plants [5]: 67 ppm
- Marketable yield, Tomato [6]: 14.6 b ton/acre
- Marketable tomato yield compared with non-treated control (in words) ([7]; BIOX-M at 1.23 lb/acre or more, BIOX-EDM at 2.0 lb/acre, Mn-sulfate at 1.0 lb/acre): significantly higher than the non-treated control
- Marketable yield ([7]; Mn 2.0 lb/acre, tomato fruits): 4.4 a lb/plant
